Source: patent publication US12501900B2, “Heterocyclyl pyridazine as fungicidal compounds” (Bayer Aktiengesellschaft, priority 2018, dated 2025)

How the values were obtained:
[1] = Measurement of LogP values by HPLC on reversed phase columns (EEC directive 79/831 Annex V.A8), methods [a], [b], [c]; type: physicochemical; conditions: HPLC on reversed phase column, method [a]; read-out: Log P
Description: Measurement of Log P values as provided herein was performed according to EEC directive 79/831 Annex V.A8 by HPLC (High Performance Liquid Chromatography) on reversed phase columns with the following methods: • ^[a]
If more than one Log P value is available within the same method, all the values are given and separated by “+”.
Lambda-max-values were determined using UV-spectra from 200 nm to 400 nm and the peak values of the chromatographic signals

Sphaerotheca fuliginea = assay: In vivo preventive test on Sphaerotheca fuliginea (powdery mildew on cucurbits); conditions: Podosphaera fuliginea, 192 h; 500 ppm of active ingredient; preventive spray on gherkin; evaluated 8 days after inoculation; read-out: efficacy
Description: Example: In Vivo Preventive Test on Sphaerotheca fuliginea (Powdery Mildew on Cucurbits)
(§1) • Solvent: 5% by volume of Dimethyl sulfoxide • 10% by volume of Acetone • Emulsifier: 1 μl of Tween® 80 per mg of active ingredient
(§2) The active ingredients were made soluble and homogenized in a mixture of Dimethyl sulfoxide/Acetone//Tween®80 and then diluted in water to the desired concentration.
The young plants of gherkin were treated by spraying the active ingredient prepared as described above. Control plants were treated only with an aqueous solution of Acetone/Dimethyl sulfoxide/Tween® 80.
After 24 hours, the plants were contaminated by spraying the leaves with an aqueous suspension of Sphaerotheca fuliginea spores. The contaminated gherkin plants were incubated for 8 days at 20° C. and at 70-80% relative humidity.
The test was evaluated 8 days after the inoculation. 0% means an efficacy which corresponds to that of the control plants while an efficacy of 100% means that no disease was observed.

Botrytis cinerea = assay: In vivo preventive test on Botrytis cinerea (grey mould); conditions: 500 ppm of active ingredient, preventive spray on gherkin or cabbage, evaluated 4 to 5 days after inoculation, read-out: efficacy
Description: Example: In Vivo Preventive Test on Botrytis cinerea (Grey Mould)
as §1, §2
The young plants of gherkin or cabbage were treated by spraying the active ingredient prepared as described above. Control plants were treated only with an aqueous solution of Acetone/Dimethyl sulfoxide/Tween® 80.
After 24 hours, the plants were contaminated by spraying the leaves with an aqueous suspension of Botrytis cinerea spores. The contaminated gherkin plants were incubated for 4 to 5 days at 17° C. and at 90% relative humidity. The contaminated cabbage plants were incubated for 4 to 5 days at 20° C. and at 100% relative humidity.
The test was evaluated 4 to 5 days after the inoculation. 0% means an efficacy which corresponds to that of the control plants while an efficacy of 100% means that no disease was observed.

Alternaria brassicae = assay: In vivo preventive test on Alternaria brassicae (leaf spot on radish or cabbage); conditions: 144 h, 500 ppm of active ingredient, preventive spray on radish or cabbage, evaluated 6 days after inoculation, read-out: efficacy
Description: Example: In Vivo Preventive Test on Alternaria brassicae (Leaf Spot on Radish or Cabbage)
as §1, §2
The young plants of radish or cabbage were treated by spraying the active ingredient prepared as described above. Control plants were treated only with an aqueous solution of Acetone/Dimethyl sulfoxide/Tween® 80.
After 24 hours, the plants were contaminated by spraying the leaves with an aqueous suspension of Alternaria brassicae spores. The contaminated radish or cabbage plants were incubated for 6 days at 20° C. and at 100% relative humidity.
The test was evaluated 6 days after the inoculation. 0% means an efficacy which corresponds to that of the control plants while an efficacy of 100% means that no disease was observed.

[2] = test system: Colletotrichum lindemuthianum; assay: Colletotrichum lindemuthianum in vitro cell test; type: cell-based; conditions: 144 h, 20 ppm of active ingredient, liquid culture, 6 days incubation, read-out: efficacy (inhibition of fungal growth)
Description: (§3) Example: Colletotrichum lindemuthianum In Vitro Cell Test • Solvent: DMSO • Culture medium: 14.6 g anhydrous D-glucose (VWR), 7.1 g Mycological Peptone (Oxoid), 1.4 g granulated Yeast Extract (Merck), QSP 1 liter • Inoculum: spores suspension Fungicides were solubilized in DMSO and the solution used to prepare the required range of concentrations. The final concentration of DMSO used in the assay was ≤1%. A spore suspension of C. lindemuthianum was prepared and diluted to the desired spore density. Fungicides were evaluated for their ability to inhibit spores germination and mycelium growth in liquid culture assay. The compounds were added in the desired concentration to the culture medium with spores. After 6 days incubation, fungi-toxicity of compounds was determined by spectrometric measurement of mycelium growth. Inhibition of fungal growth was determined by comparing the absorbance values in wells containing the fungicides with the absorbance in control wells without fungicides.

Alternaria alternata = Alternaria alternata in vitro cell test; type: cell-based; conditions: 120 h, 20 ppm of active ingredient, liquid culture, 5 days incubation, read-out: efficacy (inhibition of fungal growth)
Description: as §3, with “Example: Alternaria alternata” for “Example: Colletotrichum lindemuthianum”, “of A. alternata” for “of C. lindemuthianum”, “inhibit spore” for “inhibit spores”, “After 5” for “After 6”

Pyrenophora teres = assay: In vivo preventive test on Pyrenophora teres (net blotch on barley); conditions: 240 h, 500 ppm of active ingredient, preventive spray on barley, evaluated 10 days after inoculation, read-out: efficacy
Description: Example: In Vivo Preventive Test on Pyrenophora teres (Net Blotch on Barley)
as §1, §2
The young plants of barley were treated by spraying the active ingredient prepared as described above. Control plants were treated only with an aqueous solution of Acetone/Dimethyl sulfoxide/Tween®80.
After 24 hours, the plants were contaminated by spraying the leaves with an aqueous suspension of Pyrenophora teres spores. The contaminated barley plants were incubated for 48 hours at 20° C. and at 100% relative humidity and then for 8 days at 20° C. and at 70-80% relative humidity.
The test was evaluated 10 days after the inoculation. 0% means an efficacy which corresponds to that of the control plants while an efficacy of 100% means that no disease was observed.

[3] = test system: Colletotrichum lindemuthianum; assay: In vivo preventive test on Colletotrichum lindemuthianum (leaf spot on bean); conditions: 168 h, 500 ppm of active ingredient, preventive spray on bean, evaluated 7 days after inoculation, read-out: efficacy
Description: Example: In Vivo Preventive Test on Colletotrichum lindemuthianum (Leaf Spot on Bean)
as §1, §2
The young plants of bean were treated by spraying the active ingredient prepared as described above. Control plants were treated only with an aqueous solution of Acetone/Dimethyl sulfoxide/Tween® 80.
After 24 hours, the plants were contaminated by spraying the leaves with an aqueous suspension of Colletotrichum lindemuthianum spores. The contaminated bean plants were incubated for 24 hours at 20° C. and at 100% relative humidity and then for 6 days at 20° C. and at 90% relative humidity.
The test was evaluated 7 days after the inoculation. 0% means an efficacy which corresponds to that of the control plants while an efficacy of 100% means that no disease was observed.

Row | Compound | chromatographic logP [1] | pest or weed control at 500 ppm (Sphaerotheca fuliginea) [%] | pest or weed control at 500 ppm (Botrytis cinerea) [%] | pest or weed control at 500 ppm (Alternaria brassicae) [%] | inhibition at 20 ppm [2] [%] | inhibition at 20 ppm (Alternaria alternata) [%] | pest or weed control at 500 ppm (Pyrenophora teres) [%] | pest or weed control at 500 ppm [3] [%]
1 | Cc1cc(C2=NOCC(c3ccc(Cl)cc3)N2)c(Oc2cccc(C(F)(F)F)c2)nn1 (racemic) [I-040, rac-5-(4-chlorophenyl)-3-[6-methyl-3-[3-(trifluoro-methyl)phenoxy]pyridazin-4-yl]-5,6-dihydro-4H-1,2,4-oxadiazine] | 3.29 | 80 to 89 | 90 to 100 | 90 to 100 | 90 to 100 | 90 to 100 | 80 to 89 | 90 to 100
2 | Cc1ccc(CC2CON=C(c3c(Oc4cccc(C(F)(F)F)c4)nnc(Cl)c3NC3CC3)N2)c(C)c1 (racemic) [I-041, 3-chloro-N-cyclopropyl-5-[rac-5-[(2,4-dimethylphenyl)methyl]-5,6-dihydro-4H-1,2,4-oxadiazin-3-yl]-6-[3-(trifluoromethyl)phenoxy]pyridazin-4-amine] | 4.03 | 90 to 100 | 90 to 100 | 90 to 100 | 90 to 100 | 90 to 100 | – | –
3 | Cc1ccc(CC2CON=C(c3c(Oc4cccc(C5CC5)c4F)nnc(Cl)c3C)N2)c(C)c1 (racemic) [I-058, rac-3-[6-chloro-3-(3-cyclopropyl-2-fluoro-phenoxy)-5-methyl-pyridazin-4-yl]-5-[(2,4-dimethylphenyl)methyl]-5,6-dihydro-4H-1,2,4-oxadiazine] | 4.3 | 90 to 100 | 90 to 100 | 90 to 100 | 90 to 100 | 90 to 100 | 80 to 89 | 90 to 100
4 | Cc1cc(C2=NOCCC(c3ccc4c(ccn4C)c3)N2)c(Oc2cccc(C(F)(F)F)c2)nn1 (racemic) [I-062, rac-5-(1-methylindol-5-yl)-3-[6-methyl-3-[3-(trifluoro-methyl)phenoxy]pyridazin-4-yl]-4,5,6,7-tetrahydro-1,2,4-oxadiazepine] | 1.92 | 90 to 100 | 90 to 100 | 90 to 100 | – | – | – | 90 to 100
5 | Cc1ccc(CC2CON=C(c3c(Oc4cccc(C(F)(F)F)c4)nnc(Cl)c3I)N2)c(C)c1 (racemic) [I-065, rac-3-[6-chloro-5-iodo-3-[3-(trifluoromethyl)phenoxy]pyridazin-4-yl]-5-[(2,4-dimethylphenyl)methyl]-5,6-dihydro-4H-1,2,4-oxadiazine] | 4.37 | – | – | 90 to 100 | 90 to 100 | 90 to 100 | 70 to 79 | 90 to 100
6 | Cc1ccc(CC2CC(=O)N=C(c3cc(Cl)nnc3Oc3cccc(C4CC4)c3)N2)c(C)c1 (racemic) [I-078, rac-2-[6-chloro-3-(3-cyclopropylphenoxy)pyridazin-4-yl]-6-[(2,4-dimethylphenyl)methyl]-5,6-dihydro-1H-pyrimidin-4-one] | 4.31 | 80 to 89 | 90 to 100 | 90 to 100 | 90 to 100 | 90 to 100 | 80 to 89 | 90 to 100
7 | Cc1ccc(CC2CCN=C(c3cc(Cl)nnc3Oc3cccc(C(F)(F)F)c3)N2)c(C)c1 (racemic) [I-117, 6-chloro-4-[rac-6-[(2,4-dimethylphenyl)methyl]-1,4,5,6-tetrahydropyrimidin-2-yl]-3-[3-(trifluoromethyl)phenoxy]pyridazine] | 2.56 | – | 90 to 100 | 90 to 100 | 90 to 100 | 90 to 100 | – | 90 to 100
8 | Cc1ccc(OCC2CON=C(c3cc(C)nnc3Oc3cccc(C(F)(F)F)c3)N2)c(C)c1 (racemic) [I-144, rac-5-[(2,4-dimethylphenoxy)methyl]-3-[6-methyl-3-[3-(trifluoromethyl)phenoxy]pyridazin-4-yl]-5,6-dihydro-4H-1,2,4-oxadiazine] | 3.98 | 70 to 79 | 90 to 100 | 90 to 100 | 90 to 100 | 90 to 100 | – | –
9 | COc1ccc(C2NC(c3cc(C)nnc3Oc3cccc(C(F)(F)F)c3)=NOC2(F)F)cc1 (racemic) [I-154, rac-6,6-difluoro-5-(4-methoxyphenyl)-3-[6-methyl-3-[3-(trifluoromethyl)phenoxy]pyridazin-4-yl]-4,5-dihydro-1,2,4-oxadiazine] | 3.6 | 90 to 100 | 90 to 100 | 90 to 100 | 90 to 100 | 90 to 100 | 90 to 100 | 90 to 100
10 | COCCSc1nnc(Oc2cccc(C(F)(F)F)c2)c(C2=NOCC(Cc3ccc(C)cc3C)N2)c1C (racemic) [I-187, rac-5-[(2,4-dimethylphenyl)methyl]-3-[6-(2-methoxyethylsulfanyl)-5-methyl-3-[3-(trifluoromethyl)phenoxy]pyridazin-4-yl]-5,6-dihydro-4H-1,2,4-oxadiazine] | 4.51 | 90 to 100 | 90 to 100 | 90 to 100 | 90 to 100 | 90 to 100 | – | –
